Source: patent US20230338378A1, “Methods of Administering Myosin Inhibitors” (MYOKARDIA, INC., priority 2022, published 2023)
Read-outs that look alike come from different tables or passages of the source.

Columns and labels:
MATE1 = MATE1 (Homo sapiens, UniProt Q96FL8); assay: In vitro transporter inhibition; assay type: in vitro ADME; conditions: In Vitro Studies
BCRP = BCRP (Homo sapiens, UniProt Q9UNQ0); assay: In vitro transporter inhibition; assay type: in vitro ADME; conditions: In Vitro Studies
[1] = Pharmacokinetics in hepatic impairment; assay type: in vivo, human; conditions: mild (Child-Pugh A) or moderate (Child-Pugh B) hepatic impairment vs normal hepatic function
CYP2D6 = CYP2D6 (Homo sapiens, UniProt P10635); assay: In vitro CYP inhibition; assay type: in vitro ADME; conditions: In Vitro Studies; clinically relevant concentrations
CYP2C19 [2] = target: CYP2C19 (Homo sapiens, UniProt P33261); assay: Concomitant use with weak CYP2C19 inhibitor omeprazole; assay type: in vivo; design: Mavacamten is hepatically metabolized predominantly via CYP2C19 (74%), CYP3A4 (18%) and CYP2C9 (8%); from tissue; host or cells: liver of human subjects in vivo, or a Simcyp virtual population; conditions: mavacamten 15 mg with omeprazole 20 mg once daily; healthy CYP2C19 NMs and RMs
[3] = tested on: adults with symptomatic NYHA class II and III obstructive HCM; assay: EXPLORER-HCM Phase 3, double-blind, randomized, placebo-controlled trial; assay type: in vivo, human
Procedure: The safety of MAVACAMTEN was evaluated in EXPLORER-HCM, a Phase 3, double-blind, randomized, placebo-controlled trial. Of the 251 adults with obstructive HCM, 123 patients were treated with MAVACAMTEN 2.5-15 mg daily and 128 were treated with placebo.
The efficacy of MAVACAMTEN was evaluated in EXPLORER-HCM (NCT-03470545) a Phase 3, double-blind, randomized, placebo-controlled, multicenter, international, parallel-group trial in 251 adults with symptomatic NYHA class II and III obstructive HCM, LVEF≥55%, and Valsalva LVOT peak gradient ≥50 mmHg at rest or with provocation.
Patients on dual therapy with beta blocker and calcium channel blocker treatment or monotherapy with disopyramide or ranolazine were excluded. Patients with a known infiltrative or storage disorder causing cardiac hypertrophy that mimicked obstructive HCM, such as Fabry disease, amyloidosis, or Noonan syndrome with left ventricular hypertrophy, were also excluded.
Patients were randomized in a 1:1 ratio to receive either a starting dose of 5 mg of MAVACAMTEN or placebo once daily for 30 weeks. Treatment assignment was stratified by baseline NYHA functional class, baseline use of beta blockers, and type of ergometer (treadmill or exercise bicycle).
All patients were initiated on MAVACAMTEN 5 mg (or matching placebo) once daily, and the dose was periodically adjusted to optimize patient response (decrease in LVOT gradient with Valsalva maneuver) and maintain LVEF≥50%. The dose was also informed by plasma concentrations of MAVACAMTEN.
The primary composite functional endpoint, assessed at 30 weeks, was defined as the proportion of patients who achieved either improvement of […] (pVO2) by ≥1.5 mL/kg/min plus improvement in NYHA class by at least 1 or improvement of pVO2 by ≥3.0 mL/kg/min plus no worsening in NYHA class.
The treatment effects of MAVACAMTEN on LVOT obstruction, functional capacity, and health status were assessed by change from baseline through Week 30 in post-exercise LVOT peak gradient, change in pVO2, proportion of patients with improvement in NYHA class, Kansas City Cardiomyopathy Questionnaire-23 (KCCQ-23) Clinical Summary Score (CSS), and Hypertrophic Cardiomyopathy Symptom Questionnaire (HCMSQ) Shortness of Breath (SoB) domain score.
Missing data were not imputed to summarize the baseline and change from baseline to Week 30 values. Difference in mean change from baseline between treatment groups was estimated using a mixed model for repeated measures.

CYP2C19 [4] = assay: Pharmacogenomics: CYP2C19 poor vs normal metabolizers, single 15 mg dose; assay type: in vivo, human; conditions: for half-life: human, in vivo, 15 mg
Description: Mean half-life is prolonged in CYP2C19 PMs compared to NMs (23 days vs. 6 to 9 days, respectively).
Polymorphic CYP2C19 is the main enzyme involved in the metabolism of MAVACAMTEN. An individual carrying two normal function alleles is a NM (e.g., *1/*1). An individual carrying two no function alleles is a PM (e.g., *2/*2, *2/*3, *3/*3).

CYP3A4 = CYP3A4 (Homo sapiens, UniProt P08684); assay: Concomitant use with moderate CYP3A4 inhibitor verapamil; assay type: in vivo; design: Mavacamten is hepatically metabolized predominantly via CYP2C19 (74%), CYP3A4 (18%) and CYP2C9 (8%); from tissue; host or cells: liver of human subjects in vivo, or a Simcyp virtual population; conditions: mavacamten 25 mg with verapamil sustained release 240 mg; CYP2C19 IMs and NMs
[5] = Clinical pharmacokinetics of mavacamten; assay type: in vivo, human; conditions: for half-life: plasma, read-out: terminal half-life (converted)
[6] = Baseline to Week 30, vs Placebo
[7] = CYP2C19 PMs compared to NMs, single dose of 15 mg

CYP2C19 (Homo sapiens, UniProt P33261), sequence (P33261 whole entry): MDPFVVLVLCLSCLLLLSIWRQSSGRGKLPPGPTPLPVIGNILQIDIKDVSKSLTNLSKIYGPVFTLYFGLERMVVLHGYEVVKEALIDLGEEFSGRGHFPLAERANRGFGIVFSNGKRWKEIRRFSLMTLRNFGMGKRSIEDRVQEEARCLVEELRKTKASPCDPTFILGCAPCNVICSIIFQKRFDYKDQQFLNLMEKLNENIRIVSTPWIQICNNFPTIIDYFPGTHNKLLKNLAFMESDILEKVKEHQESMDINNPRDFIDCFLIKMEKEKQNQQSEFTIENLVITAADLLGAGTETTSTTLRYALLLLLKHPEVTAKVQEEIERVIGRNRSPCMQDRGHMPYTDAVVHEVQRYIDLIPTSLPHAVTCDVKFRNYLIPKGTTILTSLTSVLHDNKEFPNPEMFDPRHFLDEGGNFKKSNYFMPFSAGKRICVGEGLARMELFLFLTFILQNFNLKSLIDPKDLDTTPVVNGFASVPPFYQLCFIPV
CYP3A4, sequence (P08684 whole entry): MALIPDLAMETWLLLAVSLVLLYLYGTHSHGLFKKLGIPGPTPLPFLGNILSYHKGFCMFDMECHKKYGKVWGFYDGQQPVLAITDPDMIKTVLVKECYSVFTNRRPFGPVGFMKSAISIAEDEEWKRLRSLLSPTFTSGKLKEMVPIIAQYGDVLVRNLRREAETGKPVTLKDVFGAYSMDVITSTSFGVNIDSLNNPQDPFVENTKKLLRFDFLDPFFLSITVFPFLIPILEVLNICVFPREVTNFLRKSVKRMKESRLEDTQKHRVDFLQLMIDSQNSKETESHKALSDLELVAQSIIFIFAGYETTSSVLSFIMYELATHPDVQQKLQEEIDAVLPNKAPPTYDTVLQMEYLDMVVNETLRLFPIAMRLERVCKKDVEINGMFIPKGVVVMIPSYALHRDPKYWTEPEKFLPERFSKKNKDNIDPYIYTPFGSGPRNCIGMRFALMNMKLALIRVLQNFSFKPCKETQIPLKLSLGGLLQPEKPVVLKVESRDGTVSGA
BCRP, sequence (Q9UNQ0 whole entry): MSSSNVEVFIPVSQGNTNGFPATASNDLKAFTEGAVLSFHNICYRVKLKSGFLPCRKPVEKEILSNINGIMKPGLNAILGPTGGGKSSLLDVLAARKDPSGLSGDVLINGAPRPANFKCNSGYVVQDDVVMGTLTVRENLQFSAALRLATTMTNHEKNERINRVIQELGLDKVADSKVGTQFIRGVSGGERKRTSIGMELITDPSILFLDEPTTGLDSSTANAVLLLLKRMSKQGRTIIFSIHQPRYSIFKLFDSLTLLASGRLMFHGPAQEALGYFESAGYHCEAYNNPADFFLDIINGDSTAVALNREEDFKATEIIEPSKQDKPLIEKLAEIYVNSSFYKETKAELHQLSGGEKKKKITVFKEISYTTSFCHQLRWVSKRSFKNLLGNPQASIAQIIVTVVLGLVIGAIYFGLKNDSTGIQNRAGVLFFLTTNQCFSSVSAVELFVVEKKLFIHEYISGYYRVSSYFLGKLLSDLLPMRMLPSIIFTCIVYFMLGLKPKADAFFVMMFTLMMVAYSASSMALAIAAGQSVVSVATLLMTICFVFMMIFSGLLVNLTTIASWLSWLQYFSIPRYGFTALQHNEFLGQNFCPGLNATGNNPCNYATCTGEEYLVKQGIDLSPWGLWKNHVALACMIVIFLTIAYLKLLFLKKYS
MATE1, sequence (Q96FL8 whole entry): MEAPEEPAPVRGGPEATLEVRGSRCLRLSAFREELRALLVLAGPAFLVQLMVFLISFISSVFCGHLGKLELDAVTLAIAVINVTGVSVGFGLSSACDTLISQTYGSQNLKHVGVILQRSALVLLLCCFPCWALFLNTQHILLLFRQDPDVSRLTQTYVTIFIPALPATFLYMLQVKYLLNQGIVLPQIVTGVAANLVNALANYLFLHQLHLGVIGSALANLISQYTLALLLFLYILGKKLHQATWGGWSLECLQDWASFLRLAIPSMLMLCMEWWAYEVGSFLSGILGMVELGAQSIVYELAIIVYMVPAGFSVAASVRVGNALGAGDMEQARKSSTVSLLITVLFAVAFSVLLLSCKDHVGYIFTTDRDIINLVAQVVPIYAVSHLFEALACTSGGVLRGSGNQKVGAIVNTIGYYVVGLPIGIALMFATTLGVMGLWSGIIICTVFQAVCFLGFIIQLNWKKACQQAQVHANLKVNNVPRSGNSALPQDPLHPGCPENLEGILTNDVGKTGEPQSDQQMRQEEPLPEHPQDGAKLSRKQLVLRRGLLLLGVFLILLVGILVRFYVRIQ
CYP2D6, sequence (P10635 whole entry): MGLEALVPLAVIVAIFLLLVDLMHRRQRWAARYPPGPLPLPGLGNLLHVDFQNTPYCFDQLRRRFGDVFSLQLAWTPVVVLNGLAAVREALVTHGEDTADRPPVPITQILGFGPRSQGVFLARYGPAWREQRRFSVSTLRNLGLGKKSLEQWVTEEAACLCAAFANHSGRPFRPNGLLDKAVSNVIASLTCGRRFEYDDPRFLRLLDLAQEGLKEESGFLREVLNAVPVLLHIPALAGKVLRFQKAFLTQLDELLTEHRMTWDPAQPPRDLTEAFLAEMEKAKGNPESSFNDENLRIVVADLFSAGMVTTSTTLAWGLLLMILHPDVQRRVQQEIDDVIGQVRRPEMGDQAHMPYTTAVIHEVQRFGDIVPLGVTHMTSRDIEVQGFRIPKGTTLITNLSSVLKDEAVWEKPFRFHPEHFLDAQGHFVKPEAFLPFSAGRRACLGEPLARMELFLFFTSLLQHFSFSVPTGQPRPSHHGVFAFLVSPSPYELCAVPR

CC(C)n1c(=O)cc(N[C@@H](C)c2ccccc2)[nH]c1=O [mavacamten, (S)-3-Isopropyl-6-((1-phenylethyl)amino)pyrimidine-2,4(1H,3H)-dione]
inhibition of MATE1 (MATE1): does not inhibit | inhibition of BCRP (BCRP): does not inhibit | exposure (AUC) increase [1]: up to 220% | inhibition of CYP2D6 (CYP2D6): not an inhibitor | effect on mavacamten Cmax (CYP2C19 [2]): no effect | mavacamten AUCinf increase (CYP2C19 [2]): 48% | Change from baseline pVO2 ≥1.5 mL/kg/min and decreased NYHA ([3]; 30 Weeks, N = 123): 41 (33%) | Change from baseline pVO2 ≥3 mL/kg/min and NYHA not increased ([3]; 30 Weeks, N = 123): 29 (23%) | Total responders (primary endpoint) ([3]; 30 Weeks, N = 123): 45 (37%) | Change from baseline pVO2 ≥1.5 mL/kg/min and decreased NYHA, Difference (95% CI) ([3]; 30 Weeks, vs Placebo): 19% (9, 30) | Change from baseline pVO2 ≥3 mL/kg/min and NYHA not increased, Difference (95% CI) ([3]; 30 Weeks, vs Placebo): 13% (3, 22) | Total responders, Difference (95% CI) ([3]; 30 Weeks, vs Placebo): 19% (9, 30) | Number (%) with NYHA Class improved ≥1 ([3]; Baseline to Week 30, N = 123): 80 (65%) | Post-Exercise LVOT gradient, mean (SD) change ([3]; Baseline to Week 30, N = 123): −47 (40) mmHg | pVO2, mean (SD) change ([3]; Baseline to Week 30, N = 123): 1.4 (3.1) mL/kg/min | NYHA Class improved ≥1, Difference (95% CI) [3, 6]: 34% (22%, 45%) | Post-Exercise LVOT gradient, Difference (95% CI) [3, 6]: −35 (−43, −28) mmHg | pVO2, Difference (95% CI) [3, 6]: 1.4 (0.6, 2.1) mL/kg/min | Syncope leading to discontinuation, patients ([3]; EXPLORER-HCM): 0.8% | patients in whom reductions in LVEF to <50% were asymptomatic ([3]; EXPLORER-HCM): 3 of the 7 | patients who temporarily interrupted their dose due to LVEF<50% ([3]; EXPLORER-HCM): Three | patients with reversible reductions in LVEF to <50% while on treatment, n (%) ([3]; EXPLORER-HCM): 7 (6%) | Adverse reaction: dizziness, patients ([3]; EXPLORER-HCM, 2.5-15 mg daily): 27% | Adverse reaction: syncope, patients ([3]; EXPLORER-HCM, 2.5-15 mg daily): 6% | mean (SD) change from baseline in Valsalva LVOT gradient ([3]; Week 30): −49 (34) mmHg | mean (SD) change from baseline in resting LVOT gradient ([3]; Week 30): −39 (29) mmHg | proportion of patients who met the primary endpoint ([3]; Week 30): 37% | secondary endpoints (post-exercise LVOT peak gradient, pVO2, NYHA class, KCCQ-23 CSS, HCMSQ SoB) ([3]; Week 30): greater improvement compared to the placebo group across all secondary endpoints | HCMSQ SoB, Difference, LS Mean (95% CI) ([3]; Week 30, vs Placebo): −2 (−2, −1) | KCCQ-23 CSS, Difference, LS Mean (95% CI) ([3]; Week 30, vs Placebo): 9 (5, 13) | reduction in NT-proBNP greater than for placebo ([3]; Week 30 compared with baseline): 80% | LVEF following interruption in patients with LVEF <50% ([3]; all 7 patients): LVEF recovered | Subgroup analysis of the primary composite functional endpoint ([3]; all subgroups analyzed (FIG. 17)): consistently favored MAVACAMTEN across all subgroups analyzed | benefit in patients on background beta blocker therapy compared to those who were not ([3]; attenuated improvement in pVO2): smaller | KCCQ-23 PL, Change from Baseline to Week 30, Mean (SD) ([3]; in vivo): 15 (17) | KCCQ-23 TSS, Change from Baseline to Week 30, Mean (SD) ([3]; in vivo): 12 (15) | KCCQ-23 CSS, Change from Baseline to Week 30, Mean (SD) ([3]; n = 99): 14 (14) | HCMSQ SoB, Change from Baseline to Week 30, Mean (SD) ([3]; n = 108): −3 (3) | mean (SD) absolute change from baseline in LVEF ([3]; over the 30-week treatment period): −4% (8) | AUCinf increase (CYP2C19 [4]; [7]): 241% | Cmax increase (CYP2C19 [4]; [7]): 47% | half-life (CYP2C19 [4]; CYP2C19 NMs): 144 to 216 h | half-life (CYP2C19 [4]; CYP2C19 PMs): 552 h | mavacamten AUCinf increase (CYP3A4): 15% | mavacamten Cmax increase (CYP3A4): 52% | accumulation ratio for AUC ([5]; CYP2C19 NMs): about 7 fold | accumulation ratio for Cmax ([5]; CYP2C19 NMs): about 2 fold | pharmacokinetics with a high fat meal ([5]; Effect of Food): No clinically significant differences | pharmacokinetics by age (18-82 years), sex, race, ethnicity, or mild to moderate renal impairment ([5]; Specific Populations): No clinically significant differences | Tmax ([5]; human, in vivo, oral, read-out: time to maximum concentration (Tmax)): 1 h | bioavailability ([5]; human, in vivo, po, read-out: estimated oral bioavailability): ≥ 85% | half-life ([5]; human, oral, CYP2C19 normal metabolizers (NMs)): 144 to 216 h | half-life ([5]; human, oral, CYP2C19 poor metabolizers (PMs)): 552 h | exposure vs dose ([5]; multiple once-daily doses of 1 mg to 15 mg): increases generally dose proportionally | higher exposures in patients with HCM compared to healthy subjects ([5]; same dose level): 170% | peak-to-trough plasma concentration ratio ([5]; steady-state, once daily dosing): approximately 1.5
